Counter-ions that a name gives are not always drawn.
Key:
Type in all cases: physicochemical
[1] = Effect of light on active ingredient (I) or tablet cores; details: active ingredient (I) or the tablet cores
[2] = Stability with respect to uptake or release of water under varying atmospheric humidity; details: varying conditions of atmospheric humidity; compared with compound of the formula (II)
[3] = Compatibility with polyethylene glycol used in the film coating; details: at high active ingredient concentrations
[4] = Solubility of active ingredient salts in water

SMILES | Effect of light [1] | Stability with respect to uptake or release of water [2] | Compatibility with polyethylene glycol used in the film coating [3] | solubility ([4]; 25° C.) | Solubility in water at 25° C. [4]
Oc1c(-n2ccnn2)cnn1-c1cc(N2CCOCC2)ncn1 [Sodium salt (active ingredient (I)), sodium 1-[6-(morpholin-4-yl)pyrimidin-4-yl]-4-(1H-1,2,3-triazol-1-yl)-1H-pyrazol-5-olate] | brown discolouration | significantly higher stability with respect to uptake or release of water | physical incompatibility with polyethylene glycol | 26.2 mg/mL | 
[Al+3].[O-]c1c(-n2ccnn2)cnn1-c1cc(N2CCOCC2)ncn1.[O-]c1c(-n2ccnn2)cnn1-c1cc(N2CCOCC2)ncn1.[O-]c1c(-n2ccnn2)cnn1-c1cc(N2CCOCC2)ncn1 [Aluminium salt] |  |  |  |  | 6 mg/100 mL

Source: US9827198B2, “Pharmaceutical dosage forms comprising sodium-1-[6-(morpholin-4-yl)pyrimidin-4-yl]-4-(1H-1,2,3-triazol-1-yl)-1H-pyrazol-5-olate” (Bayer Pharma Aktiengesellschaft, priority 2013, dated 2017)
